# ChEMBL document CHEMBL1137152, “Copper dipicolinates as peptidomimetic ligands for the Src SH2 domain” (Bioorg Med Chem Lett, 2004)
# Biological target: T1, Proto-oncogene tyrosine-protein kinase Src (Homo sapiens, UniProt P12931)
# Assay: Inhibition of fluorescent (GpYEEI) binding to Src protein tyrosine kinase SH2 domain; call rule not given here
# T1 sequence (P12931 2-536 limits assumed): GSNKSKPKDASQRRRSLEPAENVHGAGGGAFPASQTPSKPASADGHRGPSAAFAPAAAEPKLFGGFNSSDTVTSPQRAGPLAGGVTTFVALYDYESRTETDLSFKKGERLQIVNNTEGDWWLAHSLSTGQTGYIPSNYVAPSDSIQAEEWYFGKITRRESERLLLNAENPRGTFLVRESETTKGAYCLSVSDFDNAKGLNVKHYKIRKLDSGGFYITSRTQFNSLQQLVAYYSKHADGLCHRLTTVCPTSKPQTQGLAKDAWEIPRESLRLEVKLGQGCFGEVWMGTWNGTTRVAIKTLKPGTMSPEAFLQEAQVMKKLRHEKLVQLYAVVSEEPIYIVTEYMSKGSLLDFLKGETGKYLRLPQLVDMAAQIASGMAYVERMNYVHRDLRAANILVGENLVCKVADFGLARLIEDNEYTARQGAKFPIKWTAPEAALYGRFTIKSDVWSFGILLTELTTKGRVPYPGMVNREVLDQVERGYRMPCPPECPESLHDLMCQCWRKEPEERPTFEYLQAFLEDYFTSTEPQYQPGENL
row,Structure (SMILES),IC50
1,COC(=O)c1cc(OCC(=O)N[C@@H](CC(C)C)C(=O)NCc2cccc(OC)c2)cc(C(=O)OC)n1,713 µM
2,COc1ccc(CNC(=O)[C@H](CC(C)C)NC(=O)COc2cc(C(=O)O)cc(C(=O)O)c2)cc1,864 µM

# The remaining lines, values ahead:
row,IC50,Structure (SMILES)
1,663 µM,COC(=O)c1cc(OCC(=O)N[C@@H](Cc2ccccc2)C(=O)NCc2cccc(OC)c2)cc(C(=O)OC)n1
2,396 µM,COC(=O)c1cc(OCC(=O)N[C@@H](Cc2ccccc2)C(=O)NCc2ccc3c(c2)OCO3)cc(C(=O)OC)n1
3,714 µM,COC(=O)c1cc(OCC(=O)N[C@H](C(=O)NCc2ccc3c(c2)OCO3)c2ccccc2)cc(C(=O)OC)n1

# Biological target: T1, Proto-oncogene tyrosine-protein kinase Src
# Assay: Inhibition of fluorescent (GpYEEI) binding to Src protein tyrosine kinase SH2 domain; NA = No significant inhibition
row,IC50,Structure (SMILES)
1,Not Active,COC(=O)c1cc(OCC(=O)N[C@H](C(=O)NCc2cccc(OC)c2)c2ccccc2)cc(C(=O)OC)n1
